Tests used:
PTPRC (CD45) gene = experiment: CD45 protein expression after PTPRC (CD45) gene knockout by CRISPR/Cas9; format: cell-based; conditions: T cells after CRISPR/cas9 mediated CD45KO vs wild type
Text: FIGS. 11A-11B show CD45 protein expression profile after PTPRC (CD45) gene knockout by CRISPR/Cas9 gene editing.
Cell Isolation, CD45 gene editing, CD45-CAR Lentiviral Transduction, and Ex Vivo Expansion_Leukapheresis products were obtained from consented research participants (healthy donors) under protocols approved by the City of Hope Internal Review Board (IRB). On the day of leukapheresis, peripheral blood mononuclear cells (PBMC) were isolated by density gradient centrifugation over Ficoll-Paque (GE Healthcare) followed by multiple washes in PBS/EDTA (Miltenyi Biotec). Cells were rested overnight at room temperature (RT) on a rotator, and subsequently washed and resuspended in X-VIVO T cell medium (Lonza) containing 10% FBS (complete X-VIVO). Up to 5.0×10^9 PBMC were incubated with anti-CD14 and anti-CD25 microbeads (Miltenyi Biotec) for 30 min at RT and magnetically depleted using the CliniMACS® system (Miltenyi Biotec) according to the manufacturer's protocol and these were termed depleted PBMCs (dPBMC). dPBMC were frozen in CryoStor® CS5 (StemCell Technologies) until further processing. […]
Experiments were then conducted to quantify the CD45 protein expression on wild type and CD45 knock out T cells after PTPRC (CD45) gene knockout by CRISPR/Cas9 gene editing. hCD45gRNA #3_E12, […] […]

[1] = system: iCasp9-CD45-CAR lentivirus transduced HT1080 cells; experiment: Induced cell depletion by iCasp9 safety switch; format: cell-based; conditions: 100 μM, 24h, normalized to non-treated group
Experimental: To test the effects of a suicide switch as a safety precaution, experiments were conducted to investigate the induced cell depletion effect of rimiducid on iCasp9-CD45-CAR lentivirus transduced cells. iCasp9 can be activated by a specific chemical inducer of dimerization (CID) such as rimiducid, leading to efficient elimination of iCasp9 engineered cell.
The order of iCaspase 9 and CD45 scFv components can be switched (e.g., promoter-CD45CAR-T2A-iCaspase9-etc). HT1080 cells were transduced by lentivirus. […] Transduced HT1080 cells were seeded in 24 well plate and treated with 100 μM ramiducid for 24h normalized and compared to non-treated group, and the relative survival cell number was quantified (FIG. 10C). Treating the iCasp9-CD45-CAR cells with ramiducid reduced cell survival to 36% (FIG. 10C).

| Compound | CD45 expression (flow cytometry, MFI) (PTPRC (CD45) gene) | relative survival cell number [1] |
| --- | --- | --- |
| CUUCUACAAAAAAUAAUCUG (SEQ ID NO: 39) (listed as RNA, chemistry not given here) [hCD45gRNA #3_E12, gRNA targeting PTPRC exon 12] | decreasing expression of CD45 | – |
| CC[C@H](C(=O)N1CCCC[C@H]1C(=O)O[C@H](CCc1ccc(OC)c(OC)c1)c1cccc(OCC(=O)NCCNC(=O)COc2cccc([C@@H](CCc3ccc(OC)c(OC)c3)OC(=O)[C@@H]3CCCCN3C(=O)[C@@H](CC)c3cc(OC)c(OC)c(OC)c3)c2)c1)c1cc(OC)c(OC)c(OC)c1 [ramiducid] | – | 36% |
